From patent US7705030B2, “Amino-5-(5-membered)hetero-arylimidazolone compounds and the use thereof for β-secretase modulation” (Wyeth LLC, priority 2005, dated 2010)

Tests used:
human BACE1 = human BACE1 (Homo sapiens, UniProt P56817); experiment: Fluorescent kinetic assay: Evaluation of BACE-1 Binding Affinity of Test Compounds; assay type: biochemical; settings: 10 nM enzyme, 25 μM substrate WABC-6, 50 mM Na-Acetate pH 4.5, room temperature
Procedure, shortened: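 Run with 10 nM human BACE1 and 25 μM WABC-6 FRET peptide in 50 mM Na-acetate pH 4.5, 0.05% CHAPS, 25% PBS at room temperature. Fluorescence (ex 320/em 420 nm) was read every 40 sec for 30 min, and initial cleavage rates were taken from linear slopes across ≥10 inhibitor concentrations.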

Chain of human BACE1 (P56817 46-501): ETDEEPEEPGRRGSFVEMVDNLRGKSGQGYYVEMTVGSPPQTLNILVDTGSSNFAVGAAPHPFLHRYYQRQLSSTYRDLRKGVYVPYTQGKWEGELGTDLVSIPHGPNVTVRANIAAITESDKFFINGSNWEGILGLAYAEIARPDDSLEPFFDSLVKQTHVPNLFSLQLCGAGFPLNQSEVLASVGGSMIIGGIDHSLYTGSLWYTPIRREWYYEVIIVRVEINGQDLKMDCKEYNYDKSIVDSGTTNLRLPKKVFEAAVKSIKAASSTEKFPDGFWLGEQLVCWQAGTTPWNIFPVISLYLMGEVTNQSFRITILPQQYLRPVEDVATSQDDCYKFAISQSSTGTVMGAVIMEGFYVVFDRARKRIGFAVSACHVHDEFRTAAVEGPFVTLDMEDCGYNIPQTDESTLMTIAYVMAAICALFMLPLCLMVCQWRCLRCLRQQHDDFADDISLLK

SMILES: CCn1cc([C@]2(c3ccc(F)c(-c4cccnc4F)c3)N=C(N)N(C)C2=O)cc1C(=O)OC [Example 186, Methyl 4-{(4S)-2-amino-4-[4-fluoro-3-(2-fluoropyridin-3-yl)phenyl]-1-methyl-5-oxo-4,5-dihydro-1H-imidazol-4-yl-}-ethyl-1H-pyrrole-2-carboxylate]
- IC50 (human BACE1): 0.01 to 0.1 µM
- melting point: 114 to 117 °C

SMILES: COC(=O)c1cc(C2(c3cccc(-c4cc(C#N)ccc4F)c3)N=C(N)N(C)C2=O)cn1CCF (stereo not drawn) [Example 195]
- IC50 (human BACE1): 0.01 to 0.1 µM
- melting point: 147 to 150 °C

SMILES: CCC(=O)c1cc(C2(c3cccc(-c4cncnc4)c3)N=C(N)N(C)C2=O)cn1CC(F)(F)F (stereo not drawn) [Example 201]
- IC50 (human BACE1): 0.01 to 0.1 µM
- melting point: 135 to 137 °C

SMILES: CCCn1cc(C2(c3cccc(-c4cncnc4)c3)N=C(N)N(C)C2=O)cc1C#N (stereo not drawn) [Example 229]
- IC50 (human BACE1): 0.01 to 0.1 µM
- melting point: 165 to 166 °C

SMILES: CN1C(=O)C(c2cccc(-c3cc(F)cnc3Cl)c2)(c2cc(C#N)n(C)c2)N=C1N (stereo not drawn) [Example 227]
- IC50 (human BACE1): 0.11 to 1 µM
- melting point: > 225 °C

SMILES: CCOc1cccc(-c2cccc(C3(c4cnn(CC(F)(F)F)c4)N=C(N)N(C)C3=O)c2)c1 (stereo not drawn) [Example 83]
- IC50 (human BACE1): 0.01 to 0.1 µM
- melting point: 88 to 90 °C

SMILES: CCOC(=O)c1cc(C2(c3ccc(F)c(-c4cccnc4F)c3)N=C(N)N(C)C2=O)cn1CC (stereo not drawn) [Example 125]
- IC50 (human BACE1): 0.01 to 0.1 µM
- melting point: 114 to 115 °C

SMILES: CN(C)Cc1cc(C2(c3cccc(-c4cccnc4F)c3)N=C(N)N(C)C2=O)cn1CCF (stereo not drawn) [Example 238]
- IC50 (human BACE1): 0.11 to 1 µM
- melting point: 118 to 121 °C

SMILES: CN1C(=O)C(c2cccc(-c3cccnc3F)c2)(c2cc(CN3CCCC3)n(CCF)c2)N=C1N (stereo not drawn) [Example 237]
- IC50 (human BACE1): > 1 µM
- melting point: 110 to 120 °C

SMILES: CCC(=O)c1cc(C2(c3cccc(-c4cccnc4F)c3)N=C(N)N(C)C2=O)cn1CC(C)C (stereo not drawn) [Example 179]
- IC50 (human BACE1): 0.01 to 0.1 µM
- melting point: 98 to 102 °C

SMILES: CCC(=O)c1cc(C2(c3cccc(-c4ccc(F)c(Cl)c4)c3)N=C(N)N(C)C2=O)cn1CC(F)(F)F (stereo not drawn) [Example 205]
- IC50 (human BACE1): 0.01 to 0.1 µM
- melting point: 107 to 108 °C

SMILES: CC(C)OC(=O)c1cc(C2(c3ccc(F)c(-c4cncnc4)c3)N=C(N)N(C)C2=O)cn1CCF (stereo not drawn) [Example 127]
- IC50 (human BACE1): 0.11 to 1 µM
- melting point: 167 to 170 °C

SMILES: CC(C)OC(=O)c1cc(C2(c3ccc(F)c(-c4cccnc4F)c3)N=C(N)N(C)C2=O)cn1CCF (stereo not drawn) [Example 124]
- IC50 (human BACE1): 0.11 to 1 µM
- melting point: 117 to 118 °C

SMILES: CCC(=O)c1cc(C2(c3cccc(-c4cccnc4F)c3)N=C(N)N(C)C2=O)cn1C (stereo not drawn) [Example 180]
- IC50 (human BACE1): 0.01 to 0.1 µM
- melting point: 107 to 111 °C

SMILES: CCc1cc(C2(c3cccc(-c4cncnc4)c3)N=C(N)N(C)C2=O)cs1 (stereo not drawn) [Example 29]
- IC50 (human BACE1): 0.01 to 0.1 µM
- melting point: 144 to 146 °C

SMILES: CCc1cc(C2(c3cccc(-c4cncnc4)c3)N=C(N)N(C)C2=O)c(C)s1 (stereo not drawn) [Example 31]
- IC50 (human BACE1): 0.11 to 1 µM
- melting point: 128 to 134 °C

SMILES: Cc1sccc1C1(c2cccc(-c3cncnc3)c2)N=C(N)N(C)C1=O (stereo not drawn) [Example 27, 2-Amino-5-(2-methylthien-3-yl)-3-methyl-5-(3-pyrimidin-5-ylphenyl)-3,5-dihydro-4H-imidazol-4-one]
- IC50 (human BACE1): 0.11 to 1 µM
- melting point: 154 to 159 °C

SMILES: C=CCCCOc1cccc(C2(c3cc(C(=O)CC)n(CC)c3)N=C(N)N(C)C2=O)c1 (stereo not drawn) [Example 140]
- IC50 (human BACE1): 0.01 to 0.1 µM
- melting point: 69 °C

SMILES: CCC(=O)c1cc(C2(c3cccc(-c4cc(F)cc(F)c4)c3)N=C(N)N(C)C2=O)cn1CC(F)(F)F (stereo not drawn) [Example 203]
- IC50 (human BACE1): 0.01 to 0.1 µM
- melting point: 104 to 106 °C

SMILES: COC(=O)c1cc(C2(c3cccc(-c4cc(F)cc(F)c4)c3)N=C(N)N(C)C2=O)cn1CCF (stereo not drawn) [Example 193]
- IC50 (human BACE1): 0.01 to 0.1 µM
- melting point: 173 to 176 °C

SMILES: CCn1cc(C2(c3cccc(-c4cccnc4F)c3)N=C(N)N(C)C2=O)cc1C(=O)N1CCOCC1 (stereo not drawn) [Example 164]
- IC50 (human BACE1): 0.01 to 0.1 µM
- melting point: 108 to 109 °C

SMILES: COC(=O)c1cc(C2(c3cccc(-c4cccc(OC)c4)c3)N=C(N)N(C)C2=O)cn1CCF (stereo not drawn) [Example 196]
- IC50 (human BACE1): 0.01 to 0.1 µM
- melting point: 121 to 124 °C

SMILES: COC(=O)c1cc(C2(c3cccc(-c4cc(F)ccc4F)c3)N=C(N)N(C)C2=O)cn1CCF (stereo not drawn) [Example 192]
- IC50 (human BACE1): 0.01 to 0.1 µM
- melting point: 166 to 170 °C

SMILES: CCn1cc(C2(c3cccc(-c4cccnc4F)c3)N=C(N)N(C)C2=O)cc1C(=O)NCc1ccc(F)cc1 (stereo not drawn) [Example 166]
- IC50 (human BACE1): 0.11 to 1 µM
- melting point: 110 to 112 °C

SMILES: CCCn1cc(C2(c3cccc(-c4cc(F)cnc4Cl)c3)N=C(N)N(C)C2=O)cc1C#N (stereo not drawn) [Example 232]
- IC50 (human BACE1): 0.11 to 1 µM
- melting point: 132 to 134 °C

SMILES: COc1cccc(-c2cccc(C3(c4cnn(CC(F)(F)F)c4)N=C(N)N(C)C3=O)c2)c1 (stereo not drawn) [Example 82]
- IC50 (human BACE1): 0.01 to 0.1 µM
- melting point: 95 to 97 °C

SMILES: CCCCNC(=O)c1cc(C2(c3cccc(-c4cccnc4F)c3)N=C(N)N(C)C2=O)cn1CC (stereo not drawn) [Example 160]
- IC50 (human BACE1): 0.01 to 0.1 µM
- melting point: 118 to 120 °C

SMILES: CN1C(=O)C(c2cccc(-c3cccnc3F)c2)(c2cnn(CCC3CCCCC3)c2)N=C1N (stereo not drawn) [Example 104]
- IC50 (human BACE1): 0.01 to 0.1 µM
- melting point: 88 to 90 °C

SMILES: COC(=O)c1cc(C2(c3ccc(F)c(-c4cncnc4)c3)N=C(N)N(C)C2=O)cn1CCF (stereo not drawn) [Example 118, Methyl 4-[2-Amino-4-(4-fluoro-3-pyrimidinyl-5-phenyl)-1-methyl-5-oxo-4,5-dihydro-1H-imidazol-4-yl]-1-(2-fluoroethyl)-1H-pyrrole-2-carboxylate]
- IC50 (human BACE1): 0.01 to 0.1 µM
- melting point: 88 to 90 °C

SMILES: Cc1nc(F)ccc1-c1cccc(C2(c3ccsc3)N=C(N)N(C)C2=O)c1 (stereo not drawn) [Example 36]
- IC50 (human BACE1): > 1 µM
- melting point: 140 °C

SMILES: CCC1(c2cc(C3(c4cccc(-c5cncnc5)c4)N=C(N)N(C)C3=O)cs2)OCCO1 (stereo not drawn) [Example 114]
- IC50 (human BACE1): 0.01 to 0.1 µM
- melting point: 105 to 112 °C

SMILES: CCn1cc(C2(c3ccc(F)c(-c4cncnc4)c3)N=C(N)N(C)C2=O)cn1 (stereo not drawn) [Example 9, 2-Amino-5-(1-ethyl-1H-pyrazol-4-yl)-5-(4-fluoro-3-pyrimidin-5-ylphenyl)-3-methyl-3,5-dihydro-4H-imidazol-4-one]
- IC50 (human BACE1): 0.01 to 0.1 µM
- melting point: 120 to 121 °C

SMILES: COC(=O)c1cc([C@@]2(c3ccc(F)c(-c4cncnc4)c3)N=C(N)N(C)C2=O)cn1CCF [Example 119B, Methyl 4-[(4R)2-Amino-4-(4-fluoro-3-pyrimidinyl-5-phenyl)-1-methyl-5-oxo-4,5-dihydro-1H-imidazol-4-yl]-1-(2-fluoroethyl)-1H-pyrrole-2-carboxylate]
- IC50 (human BACE1): 0.11 to 1 µM
- melting point: 186 to 188 °C

SMILES: CN1C(=O)C(c2cccc(-c3cccc(F)c3F)c2)(c2cnn(CC(F)(F)F)c2)N=C1N (stereo not drawn) [Example 87]
- IC50 (human BACE1): 0.01 to 0.1 µM
- melting point: 103 to 105 °C

SMILES: CC(C)NCc1cc(C2(c3cccc(-c4cccnc4F)c3)N=C(N)N(C)C2=O)cn1CCF (stereo not drawn) [Example 236]
- IC50 (human BACE1): > 1 µM
- melting point: 98 to 99 °C

SMILES: CN1C(=O)C(c2cccc(-c3cncnc3)c2)(c2cnn(CCC(C)(C)C)c2)N=C1N (stereo not drawn) [Example 106]
- IC50 (human BACE1): 0.01 to 0.1 µM
- melting point: 93 to 96 °C
